From publication PMC9025555, “Chiral Recognition R- and RS- of New Antifungal: Complexation/Solubilization/Dissolution Thermodynamics and Permeability Assay” (Pharmaceutics, 2022)
Values after ≈ are worked out from the molar mass of the structure shown.

Assay: Phase solubility study (shake-flask) in buffers with 2-HP-β-CD
Method: An excess amount of the substance was placed in the glass screw-capped vials with the solvent. The vials were stirred in an air thermostat for a certain period of time (a period of 3 days was estimated to be enough for reaching the equilibrium between the solid and the solvent). Then, the saturated solutions were kept in a thermostat in mild conditions no less than 12 h and thereafter centrifuged at a fixed temperature (Biofuge pico, Thermo Electron LED GmbH, Langenselbold, Germany) for 10 min at 12,000 rpm. […] The experimental results were reported as an average of at least three replicated experiments. Temperature uncertainty was ±0.1 K. The sensitivity of UV spectroscopic determinations was characterized by the values of the limit of detection (LOD)/limit of quantification (LOQ).

O=C1S/C(=C\c2ccc(Cl)cc2)C(=O)N1CC(O)CN1CCN(CC(O)(Cn2cncn2)c2ccc(F)cc2F)CC1 (stereo not shown) [RS-186, (Z)-5-(4-chlorobenzylidene)-3-(3-(4-(2-(2,4-difluorophenyl)-2-hydroxy-3-(1H-1,2,4-triazol-1-yl)propyl)piperazin-1-yl)-2-hydroxypropyl)thiazolidine-2,4-dione]
effect of CD on the solubility (enhancement) (acidic buffer, 298.15 K): 28 fold | effect of CD on the solubility (enhancement) (buffer pH 7.4, 298.15 K): 148 fold | Experimental solubility (S2) (pH 2.0, 298.15 K, 2-HP-β-CD 0 M, S2 10^3/M): 0.50 ± 0.01 10^3/M | Experimental solubility (S2) (pH 2.0, 298.15 K, 2-HP-β-CD 0.01 M, S2 10^3/M): 3.37 ± 0.08 10^3/M | Experimental solubility (S2) (pH 2.0, 298.15 K, 2-HP-β-CD 0.03 M, S2 10^3/M): 8.10 ± 0.22 10^3/M | Experimental solubility (S2) (pH 2.0, 298.15 K, 2-HP-β-CD 0.04 M, S2 10^3/M): 10.90 ± 0.31 10^3/M | Experimental solubility (S2) (pH 2.0, 298.15 K, 2-HP-β-CD 0.05 M, S2 10^3/M): 13.80 ± 0.40 10^3/M | Experimental solubility (S2) (pH 2.0, 303.15 K, 2-HP-β-CD 0 M, S2 10^3/M): 0.54 ± 0.01 10^3/M | Experimental solubility (S2) (pH 2.0, 303.15 K, 2-HP-β-CD 0.01 M, S2 10^3/M): 3.40 ± 0.04 10^3/M | Experimental solubility (S2) (pH 2.0, 303.15 K, 2-HP-β-CD 0.03 M, S2 10^3/M): 8.37 ± 0.18 10^3/M | Experimental solubility (S2) (pH 2.0, 303.15 K, 2-HP-β-CD 0.04 M, S2 10^3/M): 11.20 ± 0.19 10^3/M | Experimental solubility (S2) (pH 2.0, 303.15 K, 2-HP-β-CD 0.05 M, S2 10^3/M): 14.20 ± 0.22 10^3/M | Experimental solubility (S2) (pH 2.0, 310.15 K, 2-HP-β-CD 0 M, S2 10^3/M): 0.61 ± 0.02 10^3/M | Experimental solubility (S2) (pH 2.0, 310.15 K, 2-HP-β-CD 0.01 M, S2 10^3/M): 3.64 ± 0.04 10^3/M | Experimental solubility (S2) (pH 2.0, 310.15 K, 2-HP-β-CD 0.03 M, S2 10^3/M): 8.68 ± 0.19 10^3/M | Experimental solubility (S2) (pH 2.0, 310.15 K, 2-HP-β-CD 0.04 M, S2 10^3/M): 11.79 ± 0.33 10^3/M | Experimental solubility (S2) (pH 2.0, 310.15 K, 2-HP-β-CD 0.05 M, S2 10^3/M): 14.88 ± 0.24 10^3/M | Experimental solubility (S2) (pH 2.0, 313.15 K, 2-HP-β-CD 0 M, S2 10^3/M): 0.69 ± 0.02 10^3/M | Experimental solubility (S2) (pH 2.0, 313.15 K, 2-HP-β-CD 0.01 M, S2 10^3/M): 3.97 ± 0.03 10^3/M | Experimental solubility (S2) (pH 2.0, 313.15 K, 2-HP-β-CD 0.03 M, S2 10^3/M): 9.30 ± 0.31 10^3/M | Experimental solubility (S2) (pH 2.0, 313.15 K, 2-HP-β-CD 0.04 M, S2 10^3/M): 12.90 ± 0.33 10^3/M | Experimental solubility (S2) (pH 2.0, 313.15 K, 2-HP-β-CD 0.05 M, S2 10^3/M): 15.90 ± 0.40 10^3/M | order of the solubility (pH 2.0, compared with reported FCZ and L-173): (FCZ) > (RS-186 ≥ R-98) > (L-173) | solubility in pure buffer solution (pH 2.0, pure buffer): 500 µM (≈ 310 µg/mL) | solubility of RS-186 greater than R-98 (pH 7.4): 1.5 fold | Experimental solubility (S2) (pH 7.4, 298.15 K, 2-HP-β-CD 0 M, S2 10^4/M): 0.27 ± 0.01 10^4/M | Experimental solubility (S2) (pH 7.4, 298.15 K, 2-HP-β-CD 0.01 M, S2 10^4/M): 3.15 ± 0.02 10^4/M | Experimental solubility (S2) (pH 7.4, 298.15 K, 2-HP-β-CD 0.03 M, S2 10^4/M): 20.00 ± 0.32 10^4/M | Experimental solubility (S2) (pH 7.4, 298.15 K, 2-HP-β-CD 0.04 M, S2 10^4/M): 30.70 ± 0.51 10^4/M | Experimental solubility (S2) (pH 7.4, 298.15 K, 2-HP-β-CD 0.05 M, S2 10^4/M): 40.20 ± 0.58 10^4/M | Experimental solubility (S2) (pH 7.4, 303.15 K, 2-HP-β-CD 0 M, S2 10^4/M): 0.30 ± 0.01 10^4/M | Experimental solubility (S2) (pH 7.4, 303.15 K, 2-HP-β-CD 0.01 M, S2 10^4/M): 2.74 ± 0.03 10^4/M | Experimental solubility (S2) (pH 7.4, 303.15 K, 2-HP-β-CD 0.03 M, S2 10^4/M): 10.60 ± 0.33 10^4/M | Experimental solubility (S2) (pH 7.4, 303.15 K, 2-HP-β-CD 0.04 M, S2 10^4/M): 15.60 ± 0.41 10^4/M | Experimental solubility (S2) (pH 7.4, 303.15 K, 2-HP-β-CD 0.05 M, S2 10^4/M): 20.10 ± 0.21 10^4/M | Experimental solubility (S2) (pH 7.4, 310.15 K, 2-HP-β-CD 0 M, S2 10^4/M): 0.35 ± 0.01 10^4/M | Experimental solubility (S2) (pH 7.4, 310.15 K, 2-HP-β-CD 0.01 M, S2 10^4/M): 1.93 ± 0.03 10^4/M
